Measurements taken from ChEMBL document CHEMBL1201862, “PubChem BioAssay data set” (2004).
Calls of active or inactive are those of the source.

Experiments:
Protein Rev = Protein Rev (Human immunodeficiency virus type 1 group M subtype B (isolate HXB2)(HIV-1), UniProt P04618); assay: blockers of HIV Rev/RRE RNA complex – biochemical, fluorescence polarization, HIV-1, dose response (AID 434976); design: species or system Human immunodeficiency virus 1
[1] = target: Female germline-specific tumor suppressor gld-1 (Caenorhabditis elegans, UniProt Q17339); assay: blockers of GLD-1/TGE RNA complex formation – biochemical, fluorescence polarization, C. elegans, dose response (AID 2802);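 also: fluorescence polarization of labeled TGE RNA bound by purified gld-1 protein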
INS1 = assay: INS-1E survival protection against cytokine death – cell-based, luminescence, retest, dose response (AID 449756); format: functional; details: Rattus norvegicus;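 also: cell death triggered by IL-1 beta plus TNF-alpha plus IFN-gamma mixture; protective hits raise ATP signal compared with cytokine alone wells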
Streptokinase A = target: T1, Streptokinase A (Streptococcus pyogenes serotype M1, UniProt P10520); assay: viability-normalized secreted streptokinase activity reduction – plasminogen activation absorbance, OD405, dose response (AID 1914); format: functional, Streptococcus pyogenes M1 GAS;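 also: secreted streptokinase activity via plasminogen activation per viability signal from cell pellet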
T1 sequence (P10520 whole entry): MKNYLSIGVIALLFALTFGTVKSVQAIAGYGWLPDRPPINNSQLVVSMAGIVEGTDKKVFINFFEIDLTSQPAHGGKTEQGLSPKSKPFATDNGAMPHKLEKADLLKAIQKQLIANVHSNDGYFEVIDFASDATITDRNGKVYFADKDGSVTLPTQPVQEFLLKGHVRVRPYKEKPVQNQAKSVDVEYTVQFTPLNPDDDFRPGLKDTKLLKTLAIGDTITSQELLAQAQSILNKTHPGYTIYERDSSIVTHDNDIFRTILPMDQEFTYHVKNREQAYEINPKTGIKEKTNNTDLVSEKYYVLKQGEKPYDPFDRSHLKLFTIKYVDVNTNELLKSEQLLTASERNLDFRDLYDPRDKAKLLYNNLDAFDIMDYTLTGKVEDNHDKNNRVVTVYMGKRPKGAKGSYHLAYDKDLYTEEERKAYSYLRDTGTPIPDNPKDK

[2] = target: NACHT, LRR and PYD domains-containing protein 3 (Homo sapiens, UniProt Q96P20); assay: NALP3 inhibitors in yeast, dose response, luminescent (AID 488799); format: functional
[3] = NIH3T3 cell viability loss – ATP luminescence, mouse fibroblasts, counter-screen, dose response (AID 2010); format: functional, cell-based;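 also: cells exposed to compound for about 90 hours before reading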
Exodeoxyribonuclease V = target: T2, Exodeoxyribonuclease V (Escherichia coli (strain K12), UniProt P04993+P07648+P08394); assay: RecBCD inhibition via phage-restricted bacterial growth – absorbance, V66 E. coli, mutant T4 phage, counter-screen for AddAB inhibitor project, dose response (AID 492957); format: functional, cell-based, Escherichia coli str. K-12 substr. MG1655
T2 sequence (P04993 whole entry): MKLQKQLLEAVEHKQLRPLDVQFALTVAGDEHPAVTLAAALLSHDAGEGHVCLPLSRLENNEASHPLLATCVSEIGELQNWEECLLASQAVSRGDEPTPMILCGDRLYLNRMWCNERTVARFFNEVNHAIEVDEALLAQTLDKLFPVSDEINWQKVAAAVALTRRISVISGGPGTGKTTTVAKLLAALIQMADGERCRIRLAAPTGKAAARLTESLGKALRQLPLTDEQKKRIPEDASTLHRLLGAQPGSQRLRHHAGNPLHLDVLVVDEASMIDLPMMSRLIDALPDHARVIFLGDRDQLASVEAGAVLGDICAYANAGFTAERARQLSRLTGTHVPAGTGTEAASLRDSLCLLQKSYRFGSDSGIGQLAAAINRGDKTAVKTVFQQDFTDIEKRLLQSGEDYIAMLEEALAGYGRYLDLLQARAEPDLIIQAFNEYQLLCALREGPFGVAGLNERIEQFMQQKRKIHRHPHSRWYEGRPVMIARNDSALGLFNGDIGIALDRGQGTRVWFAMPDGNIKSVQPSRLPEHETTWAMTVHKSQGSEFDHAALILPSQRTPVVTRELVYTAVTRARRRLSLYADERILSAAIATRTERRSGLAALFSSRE
T2 sequence (P07648 whole entry): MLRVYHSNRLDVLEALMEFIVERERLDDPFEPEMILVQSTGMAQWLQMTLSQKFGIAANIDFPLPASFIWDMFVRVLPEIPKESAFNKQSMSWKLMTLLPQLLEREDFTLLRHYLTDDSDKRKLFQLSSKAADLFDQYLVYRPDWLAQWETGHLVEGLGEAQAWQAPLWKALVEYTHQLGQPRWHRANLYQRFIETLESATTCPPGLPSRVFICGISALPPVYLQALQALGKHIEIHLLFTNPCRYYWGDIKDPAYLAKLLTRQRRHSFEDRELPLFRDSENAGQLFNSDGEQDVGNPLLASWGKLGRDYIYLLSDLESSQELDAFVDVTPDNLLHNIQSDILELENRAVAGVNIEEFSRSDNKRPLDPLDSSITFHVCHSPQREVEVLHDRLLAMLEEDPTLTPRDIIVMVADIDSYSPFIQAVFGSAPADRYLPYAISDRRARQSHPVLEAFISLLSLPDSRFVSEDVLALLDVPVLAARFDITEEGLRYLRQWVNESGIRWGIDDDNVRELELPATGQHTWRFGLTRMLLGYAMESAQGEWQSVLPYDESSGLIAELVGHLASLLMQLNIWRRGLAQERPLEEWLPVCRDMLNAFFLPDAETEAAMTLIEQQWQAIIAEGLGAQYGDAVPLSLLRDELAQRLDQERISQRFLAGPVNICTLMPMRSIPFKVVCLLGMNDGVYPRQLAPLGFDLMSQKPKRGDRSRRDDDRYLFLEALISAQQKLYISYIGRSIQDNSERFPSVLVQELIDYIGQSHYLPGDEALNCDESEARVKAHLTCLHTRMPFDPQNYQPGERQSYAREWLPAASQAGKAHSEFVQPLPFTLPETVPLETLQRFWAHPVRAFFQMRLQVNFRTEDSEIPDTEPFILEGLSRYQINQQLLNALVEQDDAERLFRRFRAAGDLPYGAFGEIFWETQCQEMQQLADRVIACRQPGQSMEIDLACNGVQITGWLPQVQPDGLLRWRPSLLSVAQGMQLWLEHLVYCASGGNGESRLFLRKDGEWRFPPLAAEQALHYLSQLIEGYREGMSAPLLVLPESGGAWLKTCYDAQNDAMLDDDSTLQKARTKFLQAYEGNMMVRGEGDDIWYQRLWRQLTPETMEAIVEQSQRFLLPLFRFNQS
T2 sequence (P08394 whole entry): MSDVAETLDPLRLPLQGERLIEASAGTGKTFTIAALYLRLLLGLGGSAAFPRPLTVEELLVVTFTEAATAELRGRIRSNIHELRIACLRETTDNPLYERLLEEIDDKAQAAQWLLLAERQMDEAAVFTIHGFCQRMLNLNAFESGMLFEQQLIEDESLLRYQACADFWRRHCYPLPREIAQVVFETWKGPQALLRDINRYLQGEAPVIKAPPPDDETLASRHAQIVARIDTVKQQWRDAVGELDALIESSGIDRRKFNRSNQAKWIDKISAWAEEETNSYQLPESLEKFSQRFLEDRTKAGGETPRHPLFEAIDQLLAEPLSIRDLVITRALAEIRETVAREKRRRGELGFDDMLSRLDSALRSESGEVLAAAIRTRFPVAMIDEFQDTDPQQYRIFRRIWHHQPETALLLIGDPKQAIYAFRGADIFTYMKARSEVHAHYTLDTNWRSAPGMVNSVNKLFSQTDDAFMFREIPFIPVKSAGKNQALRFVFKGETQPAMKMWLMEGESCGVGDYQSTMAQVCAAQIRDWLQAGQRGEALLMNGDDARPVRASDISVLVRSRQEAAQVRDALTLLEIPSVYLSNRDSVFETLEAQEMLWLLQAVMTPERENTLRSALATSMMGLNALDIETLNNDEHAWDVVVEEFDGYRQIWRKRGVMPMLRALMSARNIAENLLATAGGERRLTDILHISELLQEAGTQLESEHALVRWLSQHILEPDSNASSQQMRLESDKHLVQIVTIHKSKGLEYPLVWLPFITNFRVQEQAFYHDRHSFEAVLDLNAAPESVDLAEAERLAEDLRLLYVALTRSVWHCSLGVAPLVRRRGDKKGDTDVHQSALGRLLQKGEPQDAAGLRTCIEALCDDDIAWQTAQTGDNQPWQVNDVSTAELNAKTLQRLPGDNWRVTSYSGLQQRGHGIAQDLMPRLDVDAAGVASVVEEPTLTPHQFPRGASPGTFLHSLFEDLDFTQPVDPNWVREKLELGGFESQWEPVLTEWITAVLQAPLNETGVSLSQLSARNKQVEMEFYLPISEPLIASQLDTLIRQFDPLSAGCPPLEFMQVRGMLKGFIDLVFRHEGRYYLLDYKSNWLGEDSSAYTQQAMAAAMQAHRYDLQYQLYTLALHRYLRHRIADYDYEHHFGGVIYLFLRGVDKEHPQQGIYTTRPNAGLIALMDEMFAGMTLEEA

Streptococcus = assay: GAS UMAA2166 growth inhibition – luminescence, BacTiterGlo, counter-screen for streptokinase expression inhibitor project, dose response (AID 1915); format: functional, organism-based;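 also: potency for reduction of bacterial viability or growth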
[4] = Trypanosoma cruzi growth suppression in host cells – NIH3T3 host cells, beta-gal luminescence, confirmation (AID 2044); format: functional, cell-based;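 also: intracellular parasites grown in NIH/3T3 mouse fibroblasts as host cells; luminescent beta-galactosidase reporter signal from transgenic T. cruzi replicating inside host cells; inhibitors lower the luminescence signal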
[5] = Counterscreen for AddAB inhibitors: absorbance-based bacterial cell-based high throughput dose response assay for inhibitors of bacterial viability. [Related pubchem assays (depositor defined):AID435030, AID449728, AID449731, AID488942, AID488955, AID488956]; format: functional
[6] = tested on: Streptococcus sp. 'group A'; assay: Streptococcus pyogenes SK(-)GAS viability under kanamycin – luminescence, BacTiterGlo, confirmation, counter-screen for streptokinase expression inhibitor project, dose response (AID 1900); format: functional, organism-based
[7] = target: T3, Neuropeptides B/W receptor type 1 (Homo sapiens, UniProt P48145); assay: human NPBW1 receptor blockade, IC50 – cell-based, fluorescence, dose response, late-stage follow-up (AID 463251); format: functional
T3 sequence (P48145 whole entry): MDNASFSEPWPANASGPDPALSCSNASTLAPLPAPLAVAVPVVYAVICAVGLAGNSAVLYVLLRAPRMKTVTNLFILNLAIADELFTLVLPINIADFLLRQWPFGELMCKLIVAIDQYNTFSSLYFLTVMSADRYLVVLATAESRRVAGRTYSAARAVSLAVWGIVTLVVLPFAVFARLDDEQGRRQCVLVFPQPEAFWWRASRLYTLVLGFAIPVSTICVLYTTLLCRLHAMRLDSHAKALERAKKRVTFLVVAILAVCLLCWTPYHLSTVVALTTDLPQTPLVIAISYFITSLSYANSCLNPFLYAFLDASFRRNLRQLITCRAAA

Protein Rev, sequence (P04618 whole entry): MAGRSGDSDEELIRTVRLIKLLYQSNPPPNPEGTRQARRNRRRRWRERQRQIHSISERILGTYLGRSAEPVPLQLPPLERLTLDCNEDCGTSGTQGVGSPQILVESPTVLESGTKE
Female germline-specific tumor suppressor gld-1, sequence (Q17339 whole entry): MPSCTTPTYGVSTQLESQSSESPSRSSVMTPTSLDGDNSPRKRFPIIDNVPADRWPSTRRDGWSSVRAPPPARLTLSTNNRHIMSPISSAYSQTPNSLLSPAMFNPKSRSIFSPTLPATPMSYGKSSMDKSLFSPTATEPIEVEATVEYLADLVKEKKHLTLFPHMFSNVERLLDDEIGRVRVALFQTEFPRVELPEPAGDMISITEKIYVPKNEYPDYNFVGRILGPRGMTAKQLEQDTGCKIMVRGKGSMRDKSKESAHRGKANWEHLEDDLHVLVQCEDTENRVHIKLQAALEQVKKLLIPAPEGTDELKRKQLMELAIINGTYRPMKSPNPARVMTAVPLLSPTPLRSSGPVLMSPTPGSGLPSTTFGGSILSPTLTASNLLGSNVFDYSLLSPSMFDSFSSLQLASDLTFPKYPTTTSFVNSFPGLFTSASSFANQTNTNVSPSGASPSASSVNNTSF
NACHT, LRR and PYD domains-containing protein 3, sequence (Q96P20 whole entry, the tested form may be a part): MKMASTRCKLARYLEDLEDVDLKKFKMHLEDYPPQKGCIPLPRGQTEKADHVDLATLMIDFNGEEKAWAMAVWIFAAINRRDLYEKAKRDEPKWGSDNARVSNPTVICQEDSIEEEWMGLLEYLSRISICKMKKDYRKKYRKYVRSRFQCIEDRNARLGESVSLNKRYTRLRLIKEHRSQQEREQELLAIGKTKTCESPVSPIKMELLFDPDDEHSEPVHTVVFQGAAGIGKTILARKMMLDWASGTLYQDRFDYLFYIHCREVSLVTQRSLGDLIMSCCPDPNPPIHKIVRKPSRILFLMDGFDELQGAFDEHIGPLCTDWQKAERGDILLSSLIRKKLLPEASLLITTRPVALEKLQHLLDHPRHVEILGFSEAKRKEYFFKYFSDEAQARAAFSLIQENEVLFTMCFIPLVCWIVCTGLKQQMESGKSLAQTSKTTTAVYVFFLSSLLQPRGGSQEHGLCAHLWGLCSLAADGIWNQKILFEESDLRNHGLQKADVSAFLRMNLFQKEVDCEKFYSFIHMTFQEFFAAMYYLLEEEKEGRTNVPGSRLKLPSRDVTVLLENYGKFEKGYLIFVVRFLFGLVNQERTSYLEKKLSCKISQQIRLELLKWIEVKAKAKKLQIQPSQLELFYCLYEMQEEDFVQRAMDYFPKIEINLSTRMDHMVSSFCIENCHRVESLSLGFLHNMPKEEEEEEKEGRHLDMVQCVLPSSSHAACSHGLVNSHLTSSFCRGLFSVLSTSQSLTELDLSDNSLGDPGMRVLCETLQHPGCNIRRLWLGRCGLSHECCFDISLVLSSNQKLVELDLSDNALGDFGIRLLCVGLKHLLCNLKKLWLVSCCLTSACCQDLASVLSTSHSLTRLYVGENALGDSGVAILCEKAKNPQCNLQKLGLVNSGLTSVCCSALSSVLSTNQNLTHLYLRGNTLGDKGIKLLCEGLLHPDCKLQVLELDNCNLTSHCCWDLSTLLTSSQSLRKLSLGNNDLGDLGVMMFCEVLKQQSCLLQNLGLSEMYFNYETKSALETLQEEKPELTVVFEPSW

Nc1cccc2c1C(=O)N(Cc1cccc(Cl)c1)C2=O
IC50 (Protein Rev): 17.9 µM (not active) | IC50 [1]: 4.97 µM (active)

N#Cc1ccc(NC(=O)Nc2ccc(Cl)cc2)cc1
AC50 (INS1): 4 µM (active) | EC50 (Streptokinase A): > 150 µM (not active) | IC50 [2]: 3.53 µM (active) | EC50 [3]: 7.48 µM (active) | IC50 (Exodeoxyribonuclease V): > 119 µM (inactive) | EC50 (Streptococcus): > 150 µM (not active) | EC50 [4]: 2.67 µM (active) | IC50 [5]: > 119 µM (inactive) | EC50 [6]: 31.4 µM (active)

COc1ccc(Oc2c(C)cnn(-c3ccccc3)c2=O)cc1
IC50 [7]: > 20 µM (inactive)
